The target of experiment [1] is recombinant Plk1 (Homo sapiens, UniProt P53350). As to the kind of experiment: In Vitro Plk1 Enzyme Assay (SPA, GST-Cdc25C phosphorylation). The format is biochemical. The settings on record: ATP 64 nM, 90 minutes, read-out: IC50 (Plk1 enzyme inhibition).
For experiment [2], the system named is human colon tumour cell line HT29. As to the kind of experiment: Cellular Assay (phosphohistone H3 Ser10 mitotic marker, HT29). The settings on record: HT-29, 24 h, HT29 cells, read-out: IC50 (cellular assay, phosphohistone H3). The format is cell-based.
Method: Chromosome condensation in mitosis is accompanied by phosphorylation of histone H3 on serine 10.
After 24 hours, cells were fixed in 3.7% (v/v) formaldehyde then permeabilised and blocked for 10 minutes in 100 μl 0.5% (v/v) Triton X-100, 1% (w/v) bovine serum albumin (BSA) in phosphate buffered saline (PBS). […] The raw assay data were analysed by non-linear regression analysis and used to determine an IC50 value for each compound.

Chain of recombinant Plk1 (P53350 whole entry): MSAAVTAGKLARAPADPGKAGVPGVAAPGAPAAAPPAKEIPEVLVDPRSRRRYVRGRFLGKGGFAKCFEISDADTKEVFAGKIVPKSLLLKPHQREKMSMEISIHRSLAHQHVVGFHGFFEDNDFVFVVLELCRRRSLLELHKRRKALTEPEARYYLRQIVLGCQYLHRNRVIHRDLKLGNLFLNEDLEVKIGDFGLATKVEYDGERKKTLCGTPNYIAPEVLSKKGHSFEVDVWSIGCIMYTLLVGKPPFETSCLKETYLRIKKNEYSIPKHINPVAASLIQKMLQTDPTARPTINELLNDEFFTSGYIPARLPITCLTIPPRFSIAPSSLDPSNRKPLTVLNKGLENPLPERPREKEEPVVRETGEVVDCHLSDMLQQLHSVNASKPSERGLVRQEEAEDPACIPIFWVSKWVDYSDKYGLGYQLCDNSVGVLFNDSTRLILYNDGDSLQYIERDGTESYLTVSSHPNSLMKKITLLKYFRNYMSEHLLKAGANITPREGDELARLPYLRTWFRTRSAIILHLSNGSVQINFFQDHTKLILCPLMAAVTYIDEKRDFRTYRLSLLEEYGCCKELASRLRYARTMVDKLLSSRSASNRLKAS

For `O=C1CCN(c2ccccc2)c2nc(Nc3ccc(C(=O)NCCN4CCOCC4)cc3Cl)ncc2N1` [Example 247, 3-chloro-N-(2-morpholin-4-ylethyl)-4-[(3-oxo-6-phenyl-2,6,8,10-tetrazabicyclo[5.4.0]undeca-7,9,11-trien-9-yl)amino]benzamide], the IC50 in experiment [1] was under 100000 nM.

With `CNC(=O)c1ccc(Nc2ncc3c(n2)N(C2CCCC2)CCC(=O)N3C)c(OCCOC)c1` [Example 196, 4-[(6-cyclopentyl-2-methyl-3-oxo-2,6,8,10-tetrazabicyclo[5.4.0]undeca-8,10,12-trien-9-yl)amino]-3-(2-methoxyethoxy)-N-methyl-benzamide], in experiment [1], the IC50 was under 1000 nM.

On to `CN1C(=O)CCN(c2ccccc2)c2nc(Nc3ccc(C(=O)NCCN4CCOCC4)cc3Cl)ncc21` [Example 226, 3-chloro-4-[(2-methyl-3-oxo-6-phenyl-2,6,8,10-tetrazabicyclo[5.4.0]undeca-8,10,12-trien-9-yl)amino]-N-(2-morpholin-4-ylethyl)benzamide], for which the IC50 in experiment [1] is under 1000 nM.

For the compound `CN1C(=O)CCN(C2CCCC2)c2nc(Nc3ccc(S(=O)(=O)N4CCCCC4)cc3)ncc21` [Example 134, 6-cyclopentyl-2-methyl-9-[[4-(1-piperidylsulfonyl)phenyl]amino]-2,6,8,10-tetrazabicyclo[5.4.0]undeca-8,10,12-trien-3-one], the IC50 in experiment [1] was under 100000 nM.

With `COc1cc(C(=O)O)ccc1Nc1ncc2c(n1)N(C1CCCC1)CCC(=O)N2C` [Example 111, 4-[(2-cyclopentyl-6-methyl-5-oxo-2,6,9,11-tetrazabicyclo[5.4.0]undeca-7,9,11-trien-10-yl)amino]-3-methoxy-benzoic acid], in experiment [1], the IC50 was under 300 nM.

Regarding `COc1cc(C(=O)NCCN2CCCCC2)ccc1Nc1ncc2c(n1)N(C1CCCC1)CCC(=O)N2C` [Example 12, 4-[(6-cyclopentyl-2-methyl-3-oxo-2,6,8,10-tetrazabicyclo[5.4.0]undeca-8,10,12-trien-9-yl)amino]-3-methoxy-N-[2-(1-piperidyl)ethyl]benzamide], in experiment [1], the IC50 is under 1000 nM.

`CN(C)CC(C)(C)CNC(=O)c1ccc(Nc2ncc3c(n2)N(C2CCCC2)CCC(=O)N3)c(Cl)c1` [Example 255, 3-chloro-4-[(6-cyclopentyl-3-oxo-2,6,8,10-tetrazabicyclo[5.4.0]undeca-8,10,12-trien-9-yl)amino]-N-(3-dimethylamino-2,2-dimethyl-propyl)benzamide]: the IC50 in experiment [1] is under 100000 nM.

Take `CN1C(=O)C2(CC2)CN(C2CCCC2)c2nc(Nc3ccc(C(=O)NC4C[C@H]5CCC[C@@H](C4)N5C)cc3Cl)ncc21` (stereo partly drawn) [Example 402, 3-chloro-4-(9′-cyclopentyl-5′-methyl-6′-oxo-5′,6′,8′,9′-tetrahydrospiro[cyclopropane-1,7′-pyrimido[5,4-b][1,4]diazepine]-2′-ylamino)-N-[(1S,5R)-9-methyl-9-azabicyclo[3.3.1]non-7-yl]benzamide]: in experiment [2], the IC50 was under 300 nM.

In the case of `COc1cc(C(=O)NC2C[C@H]3CCC[C@@H](C2)N3C)c(F)cc1Nc1ncc2c(n1)N(C1CCCC1)CC1(CC1)C(=O)N2C` (stereo partly drawn) [Example 404, 4-(9′-cyclopentyl-5′-methyl-6′-oxo-5′,6′,8′,9′-tetrahydrospiro[cyclopropane-1,7′-pyrimido[5,4-b][1,4]diazepine]-2′-ylamino)-2-fluoro-5-methoxy-N-[(1S,5R)-9-methyl-9-azabicyclo[3.3.1]non-3-yl]benzamide], in experiment [2], the IC50 was under 300 nM.

For `CCOc1cc(C(=O)NC2CCN(C)CC2)c(F)cc1Nc1ncc2c(n1)N(C(C)C)CCC(=O)N2C` [Example 287, 5-ethoxy-2-fluoro-4-[(6-methyl-5-oxo-2-propan-2-yl-2,6,9,11-tetrazabicyclo[5.4.0]undeca-7,9,11-trien-10-yl)amino]-N-(1-methyl-4-piperidyl)benzamide], the IC50 in experiment [2] was under 30000 nM.

In the case of `CN1C(=O)CCN(C2CCCC2)c2nc(Nc3cccc(-c4ccccc4)c3)ncc21` [Example 171, 6-cyclopentyl-2-methyl-9-[(3-phenylphenyl)amino]-2,6,8,10-tetrazabicyclo[5.4.0]undeca-8,10,12-trien-3-one], in experiment [2], the IC50 was under 30000 nM.

Consider `CN1CCC(NC(=O)c2cc(F)c(Nc3ncc4c(n3)N(C3CCCCC3)CCC(=O)N4C)cc2F)CC1` [Example 412, 4-[(2-cyclohexyl-6-methyl-5-oxo-2,6,9,11-tetrazabicyclo[5.4.0]undeca-7,9,11-trien-10-yl)amino]-2,5-difluoro-N-(1-methyl-4-piperidyl)benzamide], for which the IC50 in experiment [2] is under 300 nM.

Take `CCOc1cc(C(=O)NC2CCC(N(C)C)CC2)ccc1Nc1ncc2c(n1)N(C(C)C)CCC(=O)N2C` (stereo not shown) [Example 286, N-(4-dimethylaminocyclohexyl)-3-ethoxy-4-[(6-methyl-5-oxo-2-propan-2-yl-2,6,9,11-tetrazabicyclo[5.4.0]undeca-7,9,11-trien-10-yl)amino]benzamide]: the IC50 in experiment [2] is under 30000 nM.

On to `CCN1CCC(NC(=O)c2cc(F)c(Nc3ncc4c(n3)N(C3CCCC3)CC3(CC3)C(=O)N4C)cc2F)CC1` [Example 395, 4-(9′-cyclopentyl-5′-methyl-6′-oxo-5′,6′,8′,9′-tetrahydrospiro[cyclopropane-1,7′-pyrimido[5,4-b][1,4]diazepine]-2′-ylamino)-N-(1-ethyl-4-piperidyl)-2,5-difluoro-benzamide], for which, in experiment [2], the IC50 was under 300 nM.

With `CCOc1cc(C(=O)N[C@@H]2CCN(C)C2)ccc1Nc1ncc2c(n1)N(C(C)C)CCC(=O)N2C` [Example 284, 3-ethoxy-4-[(6-methyl-5-oxo-2-propan-2-yl-2,6,9,11-tetrazabicyclo[5.4.0]undeca-7,9,11-trien-10-yl)amino]-N-[(3R)-1-methylpyrrolidin-3-yl]benzamide], in experiment [2], the IC50 was under 30000 nM.

Regarding `CCN1CCC(NC(=O)c2cc(OC)c(Nc3ncc4c(n3)N(C3CCCCC3)CC3(CC3)C(=O)N4C)cc2F)CC1` [Example 443, 4-(9′-cyclohexyl-5′-methyl-6′-oxo-5′,6′,8′,9′-tetrahydrospiro[cyclopropane-1,7′-pyrimido[5,4-b][1,4]diazepine]-2′-ylamino)-N-(1-ethyl-4-piperidyl)-2-fluoro-5-methoxy-benzamide], the IC50 in experiment [2] is under 300 nM.

Regarding `CCN1CCC(NC(=O)c2cc(F)c(Nc3ncc4c(n3)N(C3CCCC3)CC(C)(C)C(=O)N4C)cc2F)CC1` [Example 355, 4-[(2-cyclopentyl-4,4,6-trimethyl-5-oxo-2,6,9,11-tetrazabicyclo[5.4.0]undeca-7,9,11-trien-10-yl)amino]-N-(1-ethyl-4-piperidyl)-2,5-difluoro-benzamide], the IC50 in experiment [2] is under 300 nM.

Take `CN1C(=O)C2(CC2)CN(C2CCCC2)c2nc(Nc3ccc(C(=O)NC4C[C@H]5CCC[C@@H](C4)N5C)cc3F)ncc21` (stereo partly drawn) [Example 388, 4-(9′-cyclopentyl-5′-methyl-6′-oxo-5′,6′,8′,9′-tetrahydrospiro[cyclopropane-1,7′-pyrimido[5,4-b][1,4]diazepine]-2′-ylamino)-3-fluoro-N-[(1S,5R)-9-methyl-9-azabicyclo[3.3.1]non-7-yl]benzamide]: the IC50 in experiment [2] was under 300 nM.

For the compound `COc1cc(C(=O)NCCN2CCCC2)c(F)cc1Nc1ncc2c(n1)N(C1CCCCC1)CC1(CC1)C(=O)N2C` [Example 444, 4-(9′-cyclohexyl-5′-methyl-6′-oxo-5′,6′,8′,9′-tetrahydrospiro[cyclopropane-1,7′-pyrimido[5,4-b][1,4]diazepine]-2′-ylamino)-2-fluoro-5-methoxy-N-(2-pyrrolidin-1-ylethyl)benzamide], the IC50 in experiment [2] was under 300 nM.

By IC50 is commonly meant the concentration at which inhibition is half-maximal.

The values above are taken from patent US7709471B2, “Compounds” (AstraZeneca AB, priority 2006, dated 2010).
